Test results from ChEMBL document CHEMBL1201862, “PubChem BioAssay data set” (2004).
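In this assay, cells in 96-well plates receive the compound at five concentrations for 48 hours. Endpoints are linearly interpolated between the surrounding concentrations. At the GI50, growth is halved.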 Active and inactive are the calls of the source. Cut-off read from the data, not from the text of the source: active = GI50 up to about 1.1 µM and inactive = higher.

Experiments:
Assay in all cases: inhibition of tumour cell growth, NCI panel, 48 h
RXF 393 = system: RXF 393
SK-MEL-5 = system: SK-MEL-5
KM12 = system: KM12
HL-60 = system: HL-60
OVCAR-3 = system: OVCAR-3
A549 = system: A549
RPMI-8226 = system: RPMI-8226
MOLT-4 = system: MOLT-4
OVCAR-5 = system: OVCAR-5
SF-295 = system: SF-295
EKVX = system: EKVX
MCF7 = system: MCF7
HT-29 = system: HT-29
HOP-62 = system: HOP-62
NCI-H522 = system: NCI-H522
TK-10 = system: TK-10
SNB-75 = system: SNB-75
SK-MEL-28 = system: SK-MEL-28
PC-3 = system: PC-3
UO-31 = system: UO-31

Row | SMILES | GI50 (RXF 393) | GI50 (SK-MEL-5) | GI50 (KM12) | GI50 (HL-60) | GI50 (OVCAR-3) | GI50 (A549) | GI50 (RPMI-8226) | GI50 (MOLT-4) | GI50 (OVCAR-5) | GI50 (SF-295) | GI50 (EKVX) | GI50 (MCF7) | GI50 (HT-29) | GI50 (HOP-62) | GI50 (NCI-H522) | GI50 (TK-10) | GI50 (SNB-75) | GI50 (SK-MEL-28) | GI50 (PC-3) | GI50 (UO-31)
1 | Sc1nnc(SCc2ccccc2Cl)c2nc[nH]c12 | > 100 µM (inactive) | > 100 µM (inactive) | > 100 µM (inactive) | > 100 µM (inactive) | > 100 µM (inactive) | > 100 µM (inactive) | > 100 µM (inactive) | > 100 µM (inactive) | > 100 µM (inactive) | > 100 µM (inactive) | 74.8 µM (inactive) | > 100 µM (inactive) | > 100 µM (inactive) | > 100 µM (inactive) | > 100 µM (inactive) | > 100 µM (inactive) | > 100 µM (inactive) | > 100 µM (inactive) | > 100 µM (inactive) | > 100 µM (inactive)
2 | CCNC(=O)c1c(O)nc2ccccc2c1O | 22.1 µM (inactive) | 43.5 µM (inactive) | 97.7 µM (inactive) | 35.6 µM (inactive) | 61.9 µM (inactive) | 55.6 µM (inactive) | 17.6 µM (inactive) | 42 µM (inactive) | 42.4 µM (inactive) | 80.9 µM (inactive) | 32.3 µM (inactive) | 51.8 µM (inactive) | 46.2 µM (inactive) | 64.9 µM (inactive) | 69.2 µM (inactive) | 50.6 µM (inactive) | > 100 µM (inactive) | > 100 µM (inactive) | 49.9 µM (inactive) | 73.5 µM (inactive)
3 | O=C(/C=C/c1ccccc1)CSc1nc2ccc(I)cc2c(=O)n1Cc1ccccc1 | 17 µM (inactive) | 12.7 µM (inactive) | 14.5 µM (inactive) | 17.1 µM (inactive) | 12.4 µM (inactive) | 39.9 µM (inactive) | 13.6 µM (inactive) | 9.82 µM (inactive) | > 100 µM (inactive) | 14 µM (inactive) | 7.18 µM (inactive) | 28.6 µM (inactive) | 26.3 µM (inactive) | 14.3 µM (inactive) | 12.3 µM (inactive) | 28.8 µM (inactive) | 29.8 µM (inactive) | 99.5 µM (inactive) | 18.3 µM (inactive) | 0.13 µM (active)
4 | Cc1cccc(/C=N\NC(=S)N2CCCCC2)n1 | 0.145 µM (active) | 0.0229 µM (active) | 0.13 µM (active) | 0.0112 µM (active) | < 0.01 µM (active) | 0.158 µM (active) | 0.0128 µM (active) | < 0.01 µM (active) | < 0.01 µM (active) | 0.211 µM (active) | 0.673 µM (active) | < 0.01 µM (active) | < 0.01 µM (active) | 0.0776 µM (active) | < 0.01 µM (active) | 0.0156 µM (active) | 0.611 µM (active) | 0.532 µM (active) | 0.0435 µM (active) | 0.216 µM (active)
5 | O=C(/C=C/c1ccc(OCc2cccc(Cl)c2)cc1)NO | 15.5 µM (inactive) | 16.4 µM (inactive) | 16.5 µM (inactive) | 11.1 µM (inactive) | 19.2 µM (inactive) | 18.9 µM (inactive) | 7.48 µM (inactive) | 2.67 µM (inactive) | 13.9 µM (inactive) | 17.9 µM (inactive) | 23.9 µM (inactive) | 39.5 µM (inactive) | 13.6 µM (inactive) | 18.2 µM (inactive) | 7.41 µM (inactive) | 20.9 µM (inactive) | 20.4 µM (inactive) | 26.2 µM (inactive) | 12.6 µM (inactive) | 4.78 µM (inactive)
6 | COC(=O)N/N=C(/CC1(O)C(=O)Nc2ccc([N+](=O)[O-])cc21)c1ccccc1 (stereo not given) | 22 µM (inactive) | 23.9 µM (inactive) | 34.4 µM (inactive) | 35 µM (inactive) | 44.3 µM (inactive) | 63.1 µM (inactive) | 44.6 µM (inactive) | 24.5 µM (inactive) | > 79.6 µM (inactive) | 17.5 µM (inactive) | > 54.1 µM (inactive) | 1.19 µM (inactive) | 31.4 µM (inactive) | 31 µM (inactive) | 43.9 µM (inactive) | 24.9 µM (inactive) | 23.9 µM (inactive) | 23.2 µM (inactive) | 38.8 µM (inactive) | 40.9 µM (inactive)
7 | COC12COC(=O)C1C(c1ccc3c(c1)OCO3)c1cc3c(cc1O2)OCO3 (stereo not given) | 10.3 µM (inactive) | 11.2 µM (inactive) | 7.91 µM (inactive) | 5.28 µM (inactive) | 9.62 µM (inactive) | 16.7 µM (inactive) | 14.4 µM (inactive) | 7.11 µM (inactive) | > 73.1 µM (inactive) | 6.95 µM (inactive) | 37.1 µM (inactive) | 14.3 µM (inactive) | 6.44 µM (inactive) | 16 µM (inactive) | 6.14 µM (inactive) | 29.2 µM (inactive) | 7.71 µM (inactive) | 32.8 µM (inactive) | 12.6 µM (inactive) | 28.4 µM (inactive)
8 | CC(C)(C)[Si](C)(C)OCC1OC(n2cnc3c(NC(=O)c4ccccc4)ncnc32)CC1O (stereo not given) | 22.3 µM (inactive) | 17.5 µM (inactive) | 34.7 µM (inactive) | 28 µM (inactive) | 39.9 µM (inactive) | 42.7 µM (inactive) | 21.8 µM (inactive) | 19 µM (inactive) | 36.7 µM (inactive) | 24.4 µM (inactive) | 40.3 µM (inactive) | 44.4 µM (inactive) | 36.5 µM (inactive) | 19 µM (inactive) | 14.4 µM (inactive) | 58.7 µM (inactive) | 26.7 µM (inactive) | 36.7 µM (inactive) | 37.5 µM (inactive) | 1.47 µM (inactive)
